Reference: ChEMBL document CHEMBL2331252, “Facile one-pot synthesis of novel dispirooxindole-pyrrolidine derivatives and their antimicrobial and anticancer activity against A549 human lung adenocarcinoma cancer cell line” (Bioorg Med Chem Lett, 2013)
In brackets after ≈: the same amount, converted by molar mass. Activity calls are given as the source filed them. No cut-off for these calls is given here.

Tests used:
[1] = test system: Shigella flexneri; experiment: Antibacterial activity against Shigella flexneri MTCC 1457 at 1 mg/disc after 24 hrs by disc diffusion method; assay type: functional
[2] = test system: Micrococcus luteus; experiment: Antibacterial activity against Micrococcus luteus MTCC 106 after 24 hrs; assay type: functional; conditions: MTCC 106, 24 h
[3] = test system: Klebsiella aerogenes; experiment: Antibacterial activity against Enterobacter aerogenes MTCC 111 after 24 hrs; assay type: functional
[4] = test system: Shigella flexneri; experiment: Antibacterial activity against Shigella flexneri MTCC 1457 after 24 hrs; assay type: functional; conditions: MTCC 1457, 24 h
[5] = test system: Proteus vulgaris; experiment: Antibacterial activity against Proteus vulgaris MTCC 1771 at 1 mg/disc after 24 hrs by disc diffusion method; assay type: functional
[6] = test system: Staphylococcus aureus; experiment: Antibacterial activity against Staphylococcus aureus MTCC 96 at 1 mg/disc after 24 hrs by disc diffusion method; assay type: functional
[7] = test system: Klebsiella pneumoniae; experiment: Antibacterial activity against Klebsiella pneumoniae MTCC 109 after 24 hrs; assay type: functional; conditions: MTCC 109, 24 h
[8] = test system: A549; experiment: Cytotoxicity against human A549 cells assessed as cell death at 200 ug/ml by MTT assay; assay type: functional
[9] = test system: A549; experiment: Cytotoxicity against human A549 cells assessed as cell death at 50 ug/ml by MTT assay; assay type: functional
[10] = test system: Candida albicans; experiment: Antifungal activity against Candida albicans MTCC 227 after 48 to 72 hrs; assay type: functional
[11] = test system: Klebsiella aerogenes; experiment: Antibacterial activity against Enterobacter aerogenes MTCC 111 at 1 mg/disc after 24 hrs by disc diffusion method; assay type: functional
[12] = test system: Staphylococcus aureus; experiment: Antibacterial activity against methicillin-resistant Staphylococcus aureus at 1 mg/disc after 24 hrs by disc diffusion method; assay type: functional
[13] = test system: Staphylococcus aureus; experiment: Antibacterial activity against Staphylococcus aureus MTCC 96 after 24 hrs; assay type: functional
[14] = test system: Salmonella typhimurium; experiment: Antibacterial activity against Salmonella typhimurium MTCC 1251 at 1 mg/disc after 24 hrs by disc diffusion method; assay type: functional, Salmonella enterica subsp. enterica serovar Typhimurium; conditions: for inhibition: Salmonella enterica subsp. enterica serovar Typhimurium
[15] = test system: Micrococcus luteus; experiment: Antibacterial activity against Micrococcus luteus MTCC 106 at 1 mg/disc after 24 hrs by disc diffusion method; assay type: functional
[16] = test system: Staphylococcus aureus; experiment: Antibacterial activity against methicillin-resistant Staphylococcus aureus after 24 hrs; assay type: functional
[17] = Antifungal activity against Malassezia pachydermatis at 1 mg/disc after 48 hrs by disc diffusion method; assay type: functional
[18] = test system: Candida albicans; experiment: Antifungal activity against Candida albicans MTCC 227 at 1 mg/disc after 48 hrs by disc diffusion method; assay type: functional
[19] = test system: Klebsiella pneumoniae; experiment: Antibacterial activity against Klebsiella pneumoniae MTCC 109 at 1 mg/disc after 24 hrs by disc diffusion method; assay type: functional
[20] = test system: Proteus vulgaris; experiment: Antibacterial activity against Proteus vulgaris MTCC 1771 after 24 hrs; assay type: functional
[21] = test system: A549; experiment: Cytotoxicity against human A549 cells assessed as cell death at 100 ug/ml by MTT assay; assay type: functional
[22] = test system: Salmonella typhimurium; experiment: Antibacterial activity against Salmonella typhimurium MTCC 1251 after 24 hrs; assay type: functional, Salmonella enterica subsp. enterica serovar Typhimurium
[23] = Salmonella enterica, MTCC 1251, 24 h
[24] = Salmonella enterica subsp. enterica serovar Typhimurium

SMILES | inhibition zone (IZ) [1] | MIC [2] | MIC [4] | inhibition zone (IZ) [5] | inhibition zone (IZ) [6] | MIC [7] | Activity [8] | Activity [9] | MIC [10] | inhibition zone (IZ) [11] | inhibition zone (IZ) [12] | MIC ([13]; MTCC 96, 24 h) | inhibition zone (IZ) [14] | inhibition zone (IZ) [15] | MIC [16] | inhibition [17] | inhibition zone (IZ) [19] | MIC ([20]; MTCC 1771, 24 h) | Activity [21] | MIC ([3]; MTCC 111, 24 h) | other results
CN1C[C@](C#N)(C(=O)c2c[nH]c3ccccc23)[C@]2(C(=O)Nc3ccccc32)[C@@]12C(=O)Nc1ccc(I)cc12 | 8 mm | 1000 µg/mL (≈ 1630 µM) | 1000 µg/mL (≈ 1630 µM) | 9 mm | 10 mm | 250 µg/mL (≈ 408 µM) | 17.58% | 4.19% | 500 µg/mL (≈ 815 µM) | 9 mm | 8 mm | 500 µg/mL (≈ 815 µM) | 11 mm | 8 mm | 1000 µg/mL (≈ 1630 µM) | inactive | 13 mm | 500 µg/mL (≈ 815 µM) | 9.66% | – | MIC [3]: inactive; inhibition zone (IZ) [18]: 10 mm; MIC [22, 23]: 500 µg/mL (≈ 815 µM)
CN1C(=O)[C@@]2(c3cc(I)ccc31)N(C)C[C@](C#N)(C(=O)c1c[nH]c3ccccc13)[C@]21C(=O)Nc2ccccc21 | 10 mm | 125 µg/mL (≈ 199 µM) | 500 µg/mL (≈ 797 µM) | 9 mm | 11 mm | 500 µg/mL (≈ 797 µM) | 26.85% | 4.34% | 500 µg/mL (≈ 797 µM) | 13 mm | 12 mm | 125 µg/mL (≈ 199 µM) | 10 mm | 11 mm | 125 µg/mL (≈ 199 µM) | – | 9 mm | 500 µg/mL (≈ 797 µM) | 12.66% | 125 µg/mL (≈ 199 µM) | inhibition zone (IZ) [17]: 11 mm; inhibition zone (IZ) [18]: 9 mm; MIC [22, 23]: 500 µg/mL (≈ 797 µM)
CCCCCCN1C(=O)[C@@]2(c3ccccc31)N(C)C[C@](C#N)(C(=O)c1c[nH]c3ccccc13)[C@]21C(=O)Nc2ccccc21 | 10 mm | 500 µg/mL (≈ 875 µM) | 500 µg/mL (≈ 875 µM) | 9 mm | 11 mm | 125 µg/mL (≈ 219 µM) | 62.03% | 48.03% | inactive | 9 mm | 10 mm | 125 µg/mL (≈ 219 µM) | 9 mm | 10 mm | 500 µg/mL (≈ 875 µM) | inactive | 11 mm | 500 µg/mL (≈ 875 µM) | 56.74% | 500 µg/mL (≈ 875 µM) | inhibition [18]: inactive; MIC [22, 23]: 500 µg/mL (≈ 875 µM)
Cc1ccc2c(c1)[C@]1(C(=O)N2C)N(C)C[C@](C#N)(C(=O)c2c[nH]c3ccccc23)[C@]12C(=O)Nc1ccccc12 | 11 mm | 500 µg/mL (≈ 970 µM) | 125 µg/mL (≈ 242 µM) | 12 mm | 9 mm | 125 µg/mL (≈ 242 µM) | 15.12% | 0.66% | 500 µg/mL (≈ 970 µM) | 13 mm | 8 mm | 500 µg/mL (≈ 970 µM) | 9 mm | 10 mm | 500 µg/mL (≈ 970 µM) | inactive | 11 mm | 125 µg/mL (≈ 242 µM) | 10.73% | 125 µg/mL (≈ 242 µM) | inhibition zone (IZ) [18]: 8 mm; MIC [22, 23]: 500 µg/mL (≈ 970 µM)
CN1C(=O)[C@@]2(c3cc(Cl)ccc31)N(C)C[C@](C#N)(C(=O)c1c[nH]c3ccccc13)[C@]21C(=O)Nc2ccccc21 | 9 mm | 125 µg/mL (≈ 233 µM) | 500 µg/mL (≈ 933 µM) | 11 mm | 9 mm | 125 µg/mL (≈ 233 µM) | 22.21% | 3.76% | inactive | 11 mm | 10 mm | 500 µg/mL (≈ 933 µM) | 9 mm | 12 mm | 500 µg/mL (≈ 933 µM) | inactive | 10 mm | 125 µg/mL (≈ 233 µM) | 12.98% | 125 µg/mL (≈ 233 µM) | inhibition [18]: inactive; MIC [22, 23]: 500 µg/mL (≈ 933 µM)
CN1C[C@](C#N)(C(=O)c2c[nH]c3ccccc23)[C@]2(C(=O)Nc3ccccc32)C12C(=O)c1cccc3cccc2c13 (some centres not stated) | 9 mm | 500 µg/mL (≈ 957 µM) | 500 µg/mL (≈ 957 µM) | 8 mm | 11 mm | 500 µg/mL (≈ 957 µM) | 29.72% | 7.55% | 500 µg/mL (≈ 957 µM) | 10 mm | – | 125 µg/mL (≈ 239 µM) | – | 9 mm | inactive | inactive | 8 mm | 500 µg/mL (≈ 957 µM) | 21.61% | 500 µg/mL (≈ 957 µM) | inhibition [12]: inactive; inhibition [14]: inactive; inhibition zone (IZ) [18]: 9 mm; MIC [22, 24]: inactive
CN1C(=O)[C@@]2(c3cc(Br)ccc31)N(C)C[C@](C#N)(C(=O)c1c[nH]c3ccccc13)[C@]21C(=O)Nc2ccccc21 | 11 mm | 125 µg/mL (≈ 215 µM) | 125 µg/mL (≈ 215 µM) | 9 mm | 9 mm | 500 µg/mL (≈ 861 µM) | 10.92% | 0.87% | inactive | 10 mm | 8 mm | 500 µg/mL (≈ 861 µM) | 9 mm | 11 mm | 500 µg/mL (≈ 861 µM) | inactive | 8 mm | 500 µg/mL (≈ 861 µM) | 2.07% | 125 µg/mL (≈ 215 µM) | inhibition [18]: inactive; MIC [22, 23]: 500 µg/mL (≈ 861 µM)
CCN1C(=O)[C@@]2(c3ccccc31)N(C)C[C@](C#N)(C(=O)c1c[nH]c3ccccc13)[C@]21C(=O)Nc2ccccc21 | 9 mm | 500 µg/mL (≈ 970 µM) | 500 µg/mL (≈ 970 µM) | 9 mm | 9 mm | 500 µg/mL (≈ 970 µM) | 26.58% | 7.16% | 500 µg/mL (≈ 970 µM) | 8 mm | 11 mm | 500 µg/mL (≈ 970 µM) | 7 mm | 11 mm | 500 µg/mL (≈ 970 µM) | inactive | 10 mm | 500 µg/mL (≈ 970 µM) | 18.61% | 500 µg/mL (≈ 970 µM) | inhibition zone (IZ) [18]: 8 mm; MIC [22, 23]: 500 µg/mL (≈ 970 µM)
CCCCN1C(=O)[C@@]2(c3ccccc31)N(C)C[C@](C#N)(C(=O)c1c[nH]c3ccccc13)[C@]21C(=O)Nc2ccccc21 | 9 mm | 500 µg/mL (≈ 920 µM) | 500 µg/mL (≈ 920 µM) | – | 9 mm | 500 µg/mL (≈ 920 µM) | 32.25% | 4.27% | 500 µg/mL (≈ 920 µM) | 10 mm | 11 mm | 500 µg/mL (≈ 920 µM) | 10 mm | 8 mm | 500 µg/mL (≈ 920 µM) | inactive | 8 mm | – | 19.6% | 500 µg/mL (≈ 920 µM) | inhibition [5]: inactive; inhibition zone (IZ) [18]: 8 mm; MIC [20]: inactive; MIC [22, 23]: 500 µg/mL (≈ 920 µM)
Cc1ccc2c(c1)[C@]1(C(=O)N2)N(C)C[C@](C#N)(C(=O)c2c[nH]c3ccccc23)[C@]12C(=O)Nc1ccccc12 | 11 mm | 500 µg/mL (≈ 997 µM) | 125 µg/mL (≈ 249 µM) | 10 mm | – | 500 µg/mL (≈ 997 µM) | 62.96% | 31.6% | inactive | 9 mm | 10 mm | – | 10 mm | 10 mm | 500 µg/mL (≈ 997 µM) | inactive | 9 mm | 500 µg/mL (≈ 997 µM) | 56.34% | 500 µg/mL (≈ 997 µM) | inhibition [6]: inactive; MIC [13]: inactive; inhibition [18]: inactive; MIC [22, 23]: 500 µg/mL (≈ 997 µM)
CN1C[C@](C#N)(C(=O)c2c[nH]c3ccccc23)[C@]2(C(=O)Nc3ccccc32)[C@@]12C(=O)N(Cc1ccccc1)c1ccccc12 | 7 mm | 500 µg/mL (≈ 866 µM) | 500 µg/mL (≈ 866 µM) | 9 mm | 11 mm | 125 µg/mL (≈ 216 µM) | 23.95% | 9.26% | 500 µg/mL (≈ 866 µM) | 10 mm | 9 mm | 125 µg/mL (≈ 216 µM) | – | 9 mm | 500 µg/mL (≈ 866 µM) | – | 11 mm | 500 µg/mL (≈ 866 µM) | 16.03% | 500 µg/mL (≈ 866 µM) | inhibition [14]: inactive; inhibition zone (IZ) [17]: 10 mm; inhibition zone (IZ) [18]: 9 mm; MIC [22, 24]: inactive
